Read-outs that look alike come from different tables or passages of the source.
Key:
Format in all cases: biochemical
[1] = molecular target: 320 wild-type protein kinases (Homo sapiens, UniProt P07949); conditions: kinase RET, singlicate
Excerpt: (§1) Table S4. Profiling of two compounds at two concentrations against 320 wild-type protein kinases; singlicate measurement; Residual activities (% of control).

[2] = molecular target: T1, 320 wild-type protein kinases (Homo sapiens, UniProt Q02156); conditions: PKC-epsilon, singlicate
T1 sequence (Q02156 1-737): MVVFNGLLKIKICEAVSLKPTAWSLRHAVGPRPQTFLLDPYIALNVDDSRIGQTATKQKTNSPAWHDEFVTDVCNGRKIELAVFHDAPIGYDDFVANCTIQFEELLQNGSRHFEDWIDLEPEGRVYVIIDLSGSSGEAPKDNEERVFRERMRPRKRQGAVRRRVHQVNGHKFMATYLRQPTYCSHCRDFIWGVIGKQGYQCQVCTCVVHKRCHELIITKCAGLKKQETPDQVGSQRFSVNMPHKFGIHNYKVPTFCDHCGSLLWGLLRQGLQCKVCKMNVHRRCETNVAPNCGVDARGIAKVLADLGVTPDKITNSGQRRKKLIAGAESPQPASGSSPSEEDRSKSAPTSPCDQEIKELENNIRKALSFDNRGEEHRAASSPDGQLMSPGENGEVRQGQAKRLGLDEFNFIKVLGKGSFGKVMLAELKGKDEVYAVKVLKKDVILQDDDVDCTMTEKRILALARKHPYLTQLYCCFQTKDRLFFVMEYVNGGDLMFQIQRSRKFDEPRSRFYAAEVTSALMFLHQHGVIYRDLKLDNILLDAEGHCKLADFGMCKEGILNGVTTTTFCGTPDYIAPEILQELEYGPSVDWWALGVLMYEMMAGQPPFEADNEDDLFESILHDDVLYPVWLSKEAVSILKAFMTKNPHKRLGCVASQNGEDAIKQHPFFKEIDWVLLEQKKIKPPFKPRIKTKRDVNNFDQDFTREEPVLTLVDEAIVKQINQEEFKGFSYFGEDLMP
Excerpt: as §1

[3] = molecular target: T2, 320 wild-type protein kinases (Homo sapiens, UniProt P21709); conditions: singlicate
T2 sequence (P21709 26-976): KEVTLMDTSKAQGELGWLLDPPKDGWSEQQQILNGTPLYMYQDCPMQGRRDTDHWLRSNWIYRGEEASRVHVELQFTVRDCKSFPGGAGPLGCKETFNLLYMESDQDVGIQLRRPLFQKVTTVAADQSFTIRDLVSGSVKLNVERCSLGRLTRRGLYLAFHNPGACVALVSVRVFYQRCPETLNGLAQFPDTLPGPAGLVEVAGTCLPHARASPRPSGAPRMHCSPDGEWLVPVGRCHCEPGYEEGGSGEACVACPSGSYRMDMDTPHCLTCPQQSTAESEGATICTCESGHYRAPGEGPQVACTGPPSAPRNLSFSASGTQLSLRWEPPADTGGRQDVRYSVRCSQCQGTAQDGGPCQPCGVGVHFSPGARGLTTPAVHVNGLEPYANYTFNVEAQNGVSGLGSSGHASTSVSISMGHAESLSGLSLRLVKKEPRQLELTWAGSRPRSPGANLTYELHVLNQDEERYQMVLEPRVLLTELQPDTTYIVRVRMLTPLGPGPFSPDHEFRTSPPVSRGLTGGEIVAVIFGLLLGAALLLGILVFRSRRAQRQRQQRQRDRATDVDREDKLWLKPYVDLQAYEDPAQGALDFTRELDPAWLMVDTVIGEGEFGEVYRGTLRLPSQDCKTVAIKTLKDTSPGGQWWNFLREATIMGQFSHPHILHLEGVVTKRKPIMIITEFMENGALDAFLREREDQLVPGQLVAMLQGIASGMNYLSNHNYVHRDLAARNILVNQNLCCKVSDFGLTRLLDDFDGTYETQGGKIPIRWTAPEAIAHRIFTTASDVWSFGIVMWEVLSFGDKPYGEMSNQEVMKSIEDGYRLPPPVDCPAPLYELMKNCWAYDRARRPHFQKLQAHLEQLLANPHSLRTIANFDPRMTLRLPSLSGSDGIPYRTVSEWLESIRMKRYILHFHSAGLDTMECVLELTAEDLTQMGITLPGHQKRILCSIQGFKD
Excerpt: as §1

[4] = molecular target: 320 wild-type protein kinases (Homo sapiens, UniProt Q9Y243); conditions: singlicate
Sequence of 320 wild-type protein kinases (Homo sapiens, UniProt Q9Y243) (Q9Y243 whole entry): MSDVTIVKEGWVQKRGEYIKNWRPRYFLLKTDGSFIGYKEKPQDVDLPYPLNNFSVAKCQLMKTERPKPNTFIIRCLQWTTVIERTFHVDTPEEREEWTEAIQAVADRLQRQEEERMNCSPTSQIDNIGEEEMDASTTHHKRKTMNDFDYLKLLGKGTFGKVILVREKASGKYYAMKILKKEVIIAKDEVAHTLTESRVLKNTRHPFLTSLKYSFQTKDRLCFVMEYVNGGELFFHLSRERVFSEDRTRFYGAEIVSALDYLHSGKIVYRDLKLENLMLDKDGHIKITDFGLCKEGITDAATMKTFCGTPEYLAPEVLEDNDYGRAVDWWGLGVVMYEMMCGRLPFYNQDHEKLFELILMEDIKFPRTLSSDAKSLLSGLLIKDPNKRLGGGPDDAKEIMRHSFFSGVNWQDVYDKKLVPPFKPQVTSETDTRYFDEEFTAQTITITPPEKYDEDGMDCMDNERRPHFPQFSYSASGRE
Excerpt: as §1

[5] = molecular target: 320 wild-type protein kinases (Homo sapiens, UniProt Q96SB4); conditions: kinase SRPK1, singlicate
Sequence of 320 wild-type protein kinases (Homo sapiens, UniProt Q96SB4) (Q96SB4 whole entry): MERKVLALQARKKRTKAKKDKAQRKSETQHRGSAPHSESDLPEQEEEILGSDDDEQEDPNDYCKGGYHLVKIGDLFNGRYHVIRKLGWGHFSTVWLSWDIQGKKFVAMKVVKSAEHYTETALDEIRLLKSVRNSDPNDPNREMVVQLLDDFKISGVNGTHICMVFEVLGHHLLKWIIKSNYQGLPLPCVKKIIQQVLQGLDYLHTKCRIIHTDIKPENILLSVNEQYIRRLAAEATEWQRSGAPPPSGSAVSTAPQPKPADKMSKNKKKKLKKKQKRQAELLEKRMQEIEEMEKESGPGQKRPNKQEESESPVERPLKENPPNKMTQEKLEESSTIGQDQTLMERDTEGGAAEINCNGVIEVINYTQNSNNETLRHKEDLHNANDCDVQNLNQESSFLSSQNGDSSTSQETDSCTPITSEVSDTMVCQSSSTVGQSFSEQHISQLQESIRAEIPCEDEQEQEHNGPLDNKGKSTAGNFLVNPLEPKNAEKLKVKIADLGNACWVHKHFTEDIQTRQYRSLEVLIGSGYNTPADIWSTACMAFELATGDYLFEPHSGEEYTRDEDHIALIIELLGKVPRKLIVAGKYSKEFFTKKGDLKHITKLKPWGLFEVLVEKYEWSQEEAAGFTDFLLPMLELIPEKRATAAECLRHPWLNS
Excerpt: as §1

[6] = molecular target: 320 wild-type protein kinases (Homo sapiens, UniProt O00311); conditions: singlicate
Sequence of 320 wild-type protein kinases (Homo sapiens, UniProt O00311) (O00311 whole entry): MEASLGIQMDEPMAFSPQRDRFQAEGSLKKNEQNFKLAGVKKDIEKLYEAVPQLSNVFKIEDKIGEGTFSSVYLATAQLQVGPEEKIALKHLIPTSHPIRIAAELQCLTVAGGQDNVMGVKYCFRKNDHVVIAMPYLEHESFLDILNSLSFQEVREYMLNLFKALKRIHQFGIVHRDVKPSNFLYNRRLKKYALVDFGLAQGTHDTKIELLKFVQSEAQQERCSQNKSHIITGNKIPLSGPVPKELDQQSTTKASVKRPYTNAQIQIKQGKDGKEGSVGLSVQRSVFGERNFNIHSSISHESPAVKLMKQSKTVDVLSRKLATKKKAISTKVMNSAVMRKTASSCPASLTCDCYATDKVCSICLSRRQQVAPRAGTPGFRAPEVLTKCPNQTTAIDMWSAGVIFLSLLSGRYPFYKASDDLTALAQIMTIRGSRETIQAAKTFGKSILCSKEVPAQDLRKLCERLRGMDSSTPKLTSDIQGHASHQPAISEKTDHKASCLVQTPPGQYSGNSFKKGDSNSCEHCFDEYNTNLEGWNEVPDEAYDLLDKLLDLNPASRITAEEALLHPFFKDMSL
Excerpt: as §1

[7] = molecular target: 320 wild-type protein kinases (Homo sapiens, UniProt P24723); conditions: PKC-eta, singlicate
Sequence of 320 wild-type protein kinases (Homo sapiens, UniProt P24723) (P24723 whole entry): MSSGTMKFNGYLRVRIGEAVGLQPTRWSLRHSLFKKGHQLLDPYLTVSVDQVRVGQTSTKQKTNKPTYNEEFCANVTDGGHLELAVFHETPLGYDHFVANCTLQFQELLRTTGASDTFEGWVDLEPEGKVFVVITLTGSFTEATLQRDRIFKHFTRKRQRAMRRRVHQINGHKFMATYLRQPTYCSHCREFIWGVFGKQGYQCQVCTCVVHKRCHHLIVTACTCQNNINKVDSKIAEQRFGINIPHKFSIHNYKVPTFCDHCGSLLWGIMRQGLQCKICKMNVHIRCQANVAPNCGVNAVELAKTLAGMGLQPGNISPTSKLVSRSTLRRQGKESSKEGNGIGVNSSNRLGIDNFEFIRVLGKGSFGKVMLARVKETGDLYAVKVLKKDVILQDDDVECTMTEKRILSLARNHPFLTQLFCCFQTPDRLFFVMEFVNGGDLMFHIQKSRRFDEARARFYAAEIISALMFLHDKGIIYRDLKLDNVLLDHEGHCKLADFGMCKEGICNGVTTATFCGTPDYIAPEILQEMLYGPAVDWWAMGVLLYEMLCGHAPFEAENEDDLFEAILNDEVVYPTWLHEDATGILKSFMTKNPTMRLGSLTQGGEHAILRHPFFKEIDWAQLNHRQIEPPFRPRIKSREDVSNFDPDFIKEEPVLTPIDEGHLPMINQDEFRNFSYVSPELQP
Excerpt: as §1

[8] = molecular target: 320 wild-type protein kinases (Homo sapiens, UniProt P17612); conditions: PKA, singlicate
Excerpt: as §1

Sequence of 320 wild-type protein kinases (Homo sapiens, UniProt P07949) (P07949 29-1114): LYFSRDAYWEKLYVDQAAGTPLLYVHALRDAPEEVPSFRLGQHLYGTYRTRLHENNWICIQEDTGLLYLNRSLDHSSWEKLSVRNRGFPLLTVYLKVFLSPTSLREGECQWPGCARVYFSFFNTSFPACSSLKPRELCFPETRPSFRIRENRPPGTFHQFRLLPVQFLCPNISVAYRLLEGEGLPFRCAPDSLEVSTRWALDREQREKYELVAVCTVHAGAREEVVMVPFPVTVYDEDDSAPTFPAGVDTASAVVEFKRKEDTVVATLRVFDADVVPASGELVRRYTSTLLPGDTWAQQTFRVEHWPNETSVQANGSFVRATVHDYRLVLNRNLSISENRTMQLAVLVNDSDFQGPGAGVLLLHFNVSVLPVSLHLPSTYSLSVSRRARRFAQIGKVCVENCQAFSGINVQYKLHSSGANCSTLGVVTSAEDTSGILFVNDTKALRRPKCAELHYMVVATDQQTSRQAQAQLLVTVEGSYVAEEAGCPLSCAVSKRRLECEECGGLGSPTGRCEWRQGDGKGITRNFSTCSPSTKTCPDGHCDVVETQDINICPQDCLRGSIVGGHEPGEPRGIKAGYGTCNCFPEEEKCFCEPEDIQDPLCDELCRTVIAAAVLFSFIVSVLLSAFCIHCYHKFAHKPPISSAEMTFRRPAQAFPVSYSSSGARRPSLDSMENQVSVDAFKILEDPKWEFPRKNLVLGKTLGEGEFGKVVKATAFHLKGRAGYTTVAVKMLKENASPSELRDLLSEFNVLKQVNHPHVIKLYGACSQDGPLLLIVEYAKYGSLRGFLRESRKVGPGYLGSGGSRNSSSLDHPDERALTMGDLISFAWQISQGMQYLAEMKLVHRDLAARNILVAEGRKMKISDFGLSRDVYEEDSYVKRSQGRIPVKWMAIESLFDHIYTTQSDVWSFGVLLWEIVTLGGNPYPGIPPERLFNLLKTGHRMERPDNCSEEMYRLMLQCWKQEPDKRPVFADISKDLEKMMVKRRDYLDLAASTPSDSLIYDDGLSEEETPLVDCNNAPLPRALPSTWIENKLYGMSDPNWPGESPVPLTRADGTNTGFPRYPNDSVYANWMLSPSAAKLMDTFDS

| Structure (SMILES) | Residual activity, RET ([1]; assay conc. 1.0E-06 M) | Residual activity, RET ([1]; assay conc. 1.0E-07 M) | Residual activity ([2]; 1.0E-06 M) | Residual activity ([2]; 1.0E-07 M) | Residual activity ([3]; EPHA1, 1.0E-06 M) | Residual activity ([3]; EPHA1, 1.0E-07 M) | Residual activity ([4]; AKT3 aa106-479, 1.0E-06 M) | Residual activity ([4]; AKT3 aa106-479, 1.0E-07 M) | Residual activity, SRPK1 ([5]; assay conc. 1.0E-06 M) | Residual activity, SRPK1 ([5]; assay conc. 1.0E-07 M) | Residual activity ([6]; CDC7/DBF4, 1.0E-06 M) | Residual activity ([6]; CDC7/DBF4, 1.0E-07 M) | Residual activity ([7]; 1.0E-06 M) | Residual activity ([7]; 1.0E-07 M) | Residual activity ([8]; 1.0E-06 M) | Residual activity ([8]; 1.0E-07 M) |
| --- | --- | --- | --- | --- | --- | --- | --- | --- | --- | --- | --- | --- | --- | --- | --- | --- |
| C#Cc1cc(Nc2ncnc3cc(I)ccc23)ccc1Cl [Compound 41] | 85 % of control | 102 % of control | 89 % of control | 82 % of control | 78 % of control | 106 % of control | 97 % of control | 94 % of control | 89 % of control | 96 % of control | 90 % of control | 89 % of control | 91 % of control | 93 % of control | 82 % of control | 88 % of control |
| C#Cc1cc(Nc2ncnc3cc(OC)c(OC)cc23)ccc1Cl [Compound 45] | 51 % of control | 101 % of control | 88 % of control | 89 % of control | 80 % of control | 91 % of control | 101 % of control | 96 % of control | 97 % of control | 100 % of control | 88 % of control | 107 % of control | 75 % of control | 90 % of control | 90 % of control | 93 % of control |

Source: article PMC9329436, “Optimization of the 4-anilinoquin(az)oline scaffold as epidermal growth factor receptor (EGFR) inhibitors for chordoma utilizing a toxicology profiling assay platform” (Scientific Reports, 2022)
